Values of other authors in patent US9820991B2, “Pharmaceutical composition comprising brinzolamide” (SENTISS PHARMA PVT. LTD., priority 2013, dated 2017).

Settings: in tear fluid

solubility: around 0.08%
Compound: CCN[C@H]1CN(CCCOC)S(=O)(=O)c2sc(S(N)(=O)=O)cc21 [brinzolamide, (R)-(+)-4-Ethylamino-2-(3-methoxypropyl)-3,4-dihydro-2H-thieno [3,2-e]-1,2-thiazine-6-sulfonamide-1,1-dioxide]
